US20250353841A1 (BIOGEN MA INC., priority 2022, published 2025)
pIC50: −log10 of the molar value.

test system: mutant Huntington (HTT) protein; test: HTT Mutant HTRF iPSC assay (mHTT protein lowering); type: cell-based; conditions: human iPSC derived from a HTT patient with a poly-Q49 mutation

Row | SMILES | pIC50
1 | Cc1cn2nc(-c3cc(F)c4nc([C@H]5[C@@H]6CN(C7CC(F)(F)C7)C[C@@H]65)cn4c3)cc(C)c2n1 [Compound 218, 6-(2-((1R,5S,6r)-3-(3,3-difluorocyclobutyl)-3-azabicyclo[3.1.0]hexan-6-yl)-8-fluoroimidazo[1,2-a]pyridin-6-yl)-2,8-dimethylimidazo[1,2-b]pyridazine] | 6.00 to 7.00
2 | Cc1cn2nc(-c3cc(F)c4nc([C@H]5[C@@H]6CN(C)C[C@@H]65)cn4c3)cc(C(F)(F)F)c2n1 [Compound 230, 6-(8-fluoro-2-((1R,5S,6r)-3-methyl-3-azabicyclo[3.1.0]hexan-6-yl)imidazo[1,2-a]pyridin-6-yl)-2-methyl-8-(trifluoromethyl)imidazo [1,2-b]pyridazine] | > 7.00
3 | Cc1cn2nc(-c3cc(F)c4nc(C5CCC6(CCN(C)C6)C5)cn4c3)cc(C)c2n1 (stereo not shown) [Compound 232, 6-(8-fluoro-2-(2-methyl-2-azaspiro[4.4]nonan-7-yl)imidazo[1,2-a]pyridin-6-yl)-2,8-dimethylimidazo[1,2-b]pyridazine] | > 7.00
4 | Cn1nc2ccc(-c3cc(F)c4[nH]c(C5CCNCC5)nc4c3)cc2n1 [Compound 146, 5-(7-fluoro-2-(piperidin-4-yl)-1H-benzo[d]imidazol-5-yl)-2-methyl-2H-benzo[d][1,2,3]triazole] | 5.05 to 6.00
5 | Cn1cc2cc(-c3cc(F)c4nc(CC5CCCNC5)cn4c3)ccc2n1 (stereo not shown) [Compound 17, 5-(8-fluoro-2-(piperidin-3-ylmethyl)imidazo[1,2-a]pyridin-6-yl)-2-methyl-2H-indazole] | 6.00 to 7.00
6 | Cc1cn2nc(-c3cc(F)c4nn(C5CC6(CNC6)C5)nc4c3)cc(C)c2n1 [Compound 385, 6-(2,8-dimethylimidazo[1,2-b]pyridazin-6-yl)-4-fluoro-2-(2-azaspiro[3.3]heptan-6-yl)-2H-benzo[d][1,2,3]triazole] | 6.00 to 7.00
7 | CCN1CCC(Nc2nc3c(F)cc(-c4cc(C)c5nc(C)cn5n4)cc3o2)CC1C (stereo not shown) [Compound 471, 6-(2,8-dimethylimidazo[1,2-b]pyridazin-6-yl)-N-(1-ethyl-2-methylpiperidin-4-yl)-4-fluorobenzo[d]oxazol-2-amine] | > 7.00
8 | Cc1cn2cc(-c3cc(F)c4nc(C5CCNCC5)cn4c3)cc(C#N)c2n1 [Compound 42, 8′-fluoro-2-methyl-2′-(piperidin-4-yl)-[6,6′-biimidazo[1,2-a]pyridine]-8-carbonitrile] | 5.05 to 6.00
9 | CCc1nc(C)cn2cc(-c3cc(F)c4nc(C5CCNCC5)cn4c3)cc12 [Compound 30, 6-(1-ethyl-3-methylpyrrolo[1,2-a]pyrazin-7-yl)-8-fluoro-2-(piperidin-4-yl)imidazo[1,2-a]pyridine] | > 7.00
10 | Cc1cn2nc(-c3cc(F)c4nc([C@H]5[C@@H]6CNC[C@@H]65)cn4c3)cc(C)c2n1 [Compound 161, 6-[2-[(1S,5R)-3-azabicyclo[3.1.0]hexan-6-yl]-8-fluoro-imidazo[1,2-a]pyridin-6-yl]-2,8-dimethyl-imidazo[1,2-b]pyridazine] | > 7.00
11 | Cc1cn2nc(-c3cc(F)c4nc(C5CCNCC5)cn4c3)ccc2n1 [Compound 2, 6-(8-fluoro-2-(piperidin-4-yl)imidazo[1,2-a]pyridin-6-yl)-2-methylimidazo[1,2-b]pyridazine] | > 7.00
12 | Cc1cc2nc(-c3cc(F)c4nc(C5CCNCC5)cn4c3)ccn2n1 [Compound 200, 5-(8-fluoro-2-(piperidin-4-yl)imidazo[1,2-a]pyridin-6-yl)-2-methylpyrazolo[1,5-a]pyrimidine] | > 7.00
13 | Cc1cc(-c2cc(F)c3nn(C4CCN(C)CC4)cc3c2)cc2cn(C)nc12 [Compound 356, 7-fluoro-2′,7′-dimethyl-2-(1-methylpiperidin-4-yl)-2H,2′H-5,5′-biindazole] | 6.00 to 7.00
14 | O=c1[nH]ncc2ccc(-c3cc(F)c4nc(C5CCNCC5)cn4c3)cc12 [Compound 58, 7-(8-fluoro-2-(piperidin-4-yl)imidazo[1,2-a]pyridin-6-yl)phthalazin-1(2H)-one] | 5.05 to 6.00
15 | Cc1cn2nc(-c3cc(F)c4nc(C(=O)NCC5CCCN5C)cn4c3)cc(C)c2n1 (stereo not shown) [Compound 334, 6-(2,8-dimethylimidazo[1,2-b]pyridazin-6-yl)-8-fluoro-N-((1-methylpyrrolidin-2-yl)methyl)imidazo[1,2-a]pyridine-2-carboxamide] | 6.00 to 7.00
16 | Cn1cc2cc(-c3cc(F)c4nc(C5CCNCC5)cn4c3)ccc2n1 [Compound 11, 5-(8-fluoro-2-(piperidin-4-yl)imidazo[1,2-a]pyridin-6-yl)-2-methyl-2H-indazole] | 6.00 to 7.00
17 | Cc1nc2c(C)cc(-c3cc(F)c4nc(N5CCC(N(C)C)CC5)oc4c3)nn2n1 [Compound 496, 1-(6-(2,8-dimethyl-[1,2,4]triazolo[1,5-b]pyridazin-6-yl)-4-fluorobenzo[d]oxazol-2-yl)-N,N-dimethylpiperidin-4-amine] | 6.00 to 7.00
18 | Cn1cc2c(F)cc(-c3cc(F)c4nc(C5CCNCC5)cn4c3)cc2n1 [Compound 86, 4-fluoro-6-(8-fluoro-2-(piperidin-4-yl)imidazo[1,2-a]pyridin-6-yl)-2-methyl-2H-indazole] | 5.05 to 6.00
19 | Cc1cn2cc(-c3cc(F)c4nn(C5CCNCC5)cc4c3)cc2c(C)n1 [Compound 369, 5-(1,3-dimethylpyrrolo[1,2-a]pyrazin-7-yl)-7-fluoro-2-(piperidin-4-yl)-2H-indazole] | > 7.00

Row | SMILES | pIC50
20 | Cc1cn2nc(-c3cc(F)c4nc(C5C6CCC5CNC6)cn4c3)cc(C)c2n1 (stereo not shown) [Compound 183, 6-(2-(3-azabicyclo[3.2.1]]octan-8-yl)-8-fluoroimidazo[1,2-a]pyridin-6-yl)-2,8-dimethylimidazo[1,2-blpyridazine] | 6.00 to 7.00
21 | Cc1cn2nc(-c3cc(F)c4nc(C5CCN(C6CC6)CC5)cn4c3)ccc2n1 [Compound 106, 6-(2-(1-cyclopropylpiperidin-4-yl)-8-fluoroimidazo[1,2-a]pyridin-6-yl)-2-methylimidazo[1,2-b]pyridazine] | > 7.00
22 | Cc1nc2ccc(-c3cc(F)c4nc(C5CCNCC5)cn4c3)cn2n1 [Compound 37, 6-(8-fluoro-2-(piperidin-4-yl)imidazo[1,2-a]pyridin-6-yl)-2-methyl-[1,2,4]triazolo[1,5-a]pyridine] | 5.05 to 6.00
23 | Cn1cc2cc(-c3cc(F)c4nc(C5CCNC5)cn4c3)ccc2n1 (stereo not shown) [Compound 65, 5-(8-fluoro-2-(pyrrolidin-3-yl)imidazo[1,2-a]pyridin-6-yl)-2-methyl-2H-indazole] | 5.05 to 6.00
24 | CCN1CCC(c2cn3cc(-c4cc(C)c5nn(C)cc5n4)cc(F)c3n2)CC1 [Compound 173, 5-(2-(1-ethylpiperidin-4-yl)-8-fluoroimidazo[1,2-a]pyridin-6-yl)-2,7-dimethyl-2H-pyrazolo[4,3-b]pyridine] | 6.00 to 7.00
25 | Cc1cn2nc(-c3cc(F)c4nc(CC5CNC5)cn4c3)cc(C)c2n1 [Compound 13, 6-(2-(azetidin-3-ylmethyl)-8-fluoroimidazo[1,2-a]pyridin-6-yl)-2,8-dimethylimidazo[1,2-b]pyridazine] | 6.00 to 7.00
26 | Cc1cn2nc(-c3cc(F)c4nc([C@H]5[C@@H]6CNC[C@@H]65)nn4c3)cc(C)c2n1 [Compound 443, 2-[(1R,5S)-3-azabicyclo[3.1.0]hexan-6-yl]-6-(2,8-dimethylimidazo[1,2-b]pyridazin-6-yl)-8-fluoro-[1,2,4]triazolo[1,5-a]pyridine] | > 7.00
27 | COc1cc(-c2cc(F)c3nc(C4CCNCC4)cn3c2)cc2cn(C)nc12 [Compound 83, 5-(8-fluoro-2-(piperidin-4-yl)imidazo[1,2-a]pyridin-6-yl)-7-methoxy-2-methyl-2H-indazole] | 6.00 to 7.00
28 | Cc1nc2c(C)cc(-c3cc(F)c4nc(C5CCNCC5)cn4c3)cn2n1 [Compound 123, 6-(8-fluoro-2-(piperidin-4-yl)imidazo[1,2-a]pyridin-6-yl)-2,8-dimethyl-[1,2,4]triazolo[1,5-a]pyridine] | 6.00 to 7.00
29 | Cc1cn2nc(-c3cc(F)c4nc(NC(=O)CC5CCNC5)cn4c3)cc(C)c2n1 (racemic) [Compound 283, N-(6-(2,8-dimethylimidazo[1,2-b]pyridazin-6-yl)-8-fluoroimidazo[1,2-a]pyridin-2-yl)-2-(pyrrolidin-3-yl)acetamide] | 6.00 to 7.00
30 | Cc1cn2cc(-c3cc(F)c4nc(C5CCN(C)CC5)cn4c3)ccc2n1 [Compound 10, 8-fluoro-2′-methyl-2-(1-methylpiperidin-4-yl)-6,6′-biimidazo[1,2-a]pyridine] | 5.05 to 6.00
31 | Cc1cn2nc(-c3cc(F)c4nc(NC(=O)CC5CCCCN5)cn4c3)cc(C)c2n1 (stereo not shown) [Compound 274, N-(6-(2,8-dimethylimidazo[1,2-b]pyridazin-6-yl)-8-fluoroimidazo[1,2-a]pyridin-2-yl)-2-(piperidin-2-yl)acetamide] | > 7.00
32 | Cc1cn2nc(-c3cc(F)c4nc([C@@H]5CCCNC5)cn4c3)cc(C)c2n1 (single isomer, unassigned) [Compound 118] | > 7.00
33 | Cc1cn2nc(-c3cc(F)c4nc(C56CC(N)(C5)C6)cn4c3)cc(C)c2n1 [Compound 91] | > 7.00
34 | Cc1nc2cc(-c3cc(F)c4nc(C5CCNCC5)cn4c3)ccc2[nH]1 [Compound 50, 5-(8-fluoro-2-(piperidin-4-yl)imidazo[1,2-a]pyridin-6-yl)-2-methyl-1H-benzo[d]imidazole] | 5.05 to 6.00
35 | Cc1cn2nc(-c3cc(F)c4nc(N(C)C5CC(C)(C)NC(C)(C)C5)oc4c3)ccc2n1 [Compound 504, 4-fluoro-N-methyl-6-(2-methylimidazo[1,2-b]pyridazin-6-yl)-N-(2,2,6,6-tetramethylpiperidin-4-yl)benzo[d]oxazol-2-amine] | 6.00 to 7.00
36 | CCc1cc(-c2cc(F)c3nc(C4CCNCC4)cn3c2)nn2cc(C)nc12 [Compound 197, 8-ethyl-6-(8-fluoro-2-(piperidin-4-yl)imidazo[1,2-a]pyridin-6-yl)-2-methylimidazo[1,2-b]pyridazine] | > 7.00
37 | COc1cc(-c2cc(C)c3nc(C)cn3n2)cn2cc(C3CCNCC3)nc12 [Compound 538, 6-(8-methoxy-2-(piperidin-4-yl)imidazo[1,2-a]pyridin-6-yl)-2,8-dimethylimidazo[1,2-b]pyridazine] | > 7.00
